Source: ChEMBL document CHEMBL6127132, “Design, Synthesis, and Biological Evaluation of Novel Diaminopyrimidine Macrocycles as Fourth Generation Reversible EGFR Inhibitors That Overcome Clinical Resistance to Osimertinib Mediated by C797S Mutation” (J Med Chem, 2024)
pIC50: −log10 of the molar value. Blank lines part the entries; values can stand above or below the compound they belong to.

Columns and labels:
BaF3 [1] = test: cells; details: Mus musculus, BaF3, 72 h
BaF3 [2] = test: Antitumor activity against mouse BaF3 cells harboring 19del/T790M/C797S mutant implanted in female BALB/c nu/nu mouse assessed as tumor growth inhibition at 20 mg/kg, po administered once daily for 9 days relative to control; format: functional; details: BaF3, 216 h, time 9 day, read-out: TGI
[3] = Induction of apoptosis in mouse BaF3 cells harboring EGFR 19del/T790M/C797S mutant assessed as late apoptotic cells at 1000 nM incubated for 48 hrs by Annexin V-FITC/PI staining based flow cytometric analysis (reference value: 1.47 %); format: functional
[4] = Induction of apoptosis in mouse BaF3 cells harboring EGFR 19del/T790M/C797S mutant assessed as late apoptotic cells at 30 nM incubated for 48 hrs by Annexin V-FITC/PI staining based flow cytometric analysis (reference value: 1.47 %); format: functional
[5] = Induction of apoptosis in mouse BaF3 cells harboring EGFR 19del/T790M/C797S mutant assessed as early apoptotic cells at 30 nM incubated for 48 hrs by Annexin V-FITC/PI staining based flow cytometric analysis (reference value: 0.36 %); format: functional
[6] = Induction of apoptosis in mouse BaF3 cells harboring EGFR 19del/T790M/C797S mutant assessed as early apoptotic cells at 1000 nM incubated for 48 hrs by Annexin V-FITC/PI staining based flow cytometric analysis (reference value: 0.36 %); format: functional
A-431 = test: cells; details: Homo sapiens, A-431, 72 h
Description: Antiproliferative activity against human A-431 cells harboring wildtype EGFR assessed as inhibition of cell proliferation measured after 72 hrs by SRB assay

[7] = Antiproliferative activity against mouse BaF3 cells assessed as inhibition of cell proliferation incubated for 72 hrs by CCK-8 assay; format: toxicity, cell-based
BaF3 [8] = test: cells; details: Mus musculus, BaF3, 72 h; remark: listed apart in the source
[9] = Induction of apoptosis in mouse BaF3 cells harboring EGFR 19del/T790M/C797S mutant assessed as late apoptotic cells at 300 nM incubated for 48 hrs by Annexin V-FITC/PI staining based flow cytometric analysis (reference value: 1.47 %); format: functional
[10] = Induction of apoptosis in mouse BaF3 cells harboring EGFR 19del/T790M/C797S mutant assessed as late apoptotic cells at 100 nM incubated for 48 hrs by Annexin V-FITC/PI staining based flow cytometric analysis (reference value: 1.47 %); format: functional
cells = details: Homo sapiens, PC9-OR, 72 h
[11] = Induction of apoptosis in mouse BaF3 cells harboring EGFR 19del/T790M/C797S mutant assessed as early apoptotic cells at 100 nM incubated for 48 hrs by Annexin V-FITC/PI staining based flow cytometric analysis (reference value: 0.36 %); format: functional
[12] = Induction of apoptosis in mouse BaF3 cells harboring EGFR 19del/T790M/C797S mutant assessed as early apoptotic cells at 300 nM incubated for 48 hrs by Annexin V-FITC/PI staining based flow cytometric analysis (reference value: 0.36 %); format: functional
[13] = Induction of apoptosis in mouse BaF3 cells harboring EGFR 19del/T790M/C797S mutant assessed as late apoptotic cells at 300 nM incubated for 48 hrs by Annexin V-FITC/PI staining based flow cytometric analysis (reference value: 1.75 %); format: functional
[14] = Induction of apoptosis in mouse BaF3 cells harboring EGFR 19del/T790M/C797S mutant assessed as late apoptotic cells at 1000 nM incubated for 48 hrs by Annexin V-FITC/PI staining based flow cytometric analysis (reference value: 1.75 %); format: functional
[15] = Induction of apoptosis in mouse BaF3 cells harboring EGFR 19del/T790M/C797S mutant assessed as late apoptotic cells at 30 nM incubated for 48 hrs by Annexin V-FITC/PI staining based flow cytometric analysis (reference value: 1.75 %); format: functional
[16] = Induction of apoptosis in mouse BaF3 cells harboring EGFR 19del/T790M/C797S mutant assessed as early apoptotic cells at 30 nM incubated for 48 hrs by Annexin V-FITC/PI staining based flow cytometric analysis (reference value: 2.48 %); format: functional
[17] = Induction of apoptosis in mouse BaF3 cells harboring EGFR 19del/T790M/C797S mutant assessed as early apoptotic cells at 300 nM incubated for 48 hrs by Annexin V-FITC/PI staining based flow cytometric analysis (reference value: 2.48 %); format: functional
[18] = Induction of apoptosis in mouse BaF3 cells harboring EGFR 19del/T790M/C797S mutant assessed as late apoptotic cells at 100 nM incubated for 48 hrs by Annexin V-FITC/PI staining based flow cytometric analysis (reference value: 1.75 %); format: functional
[19] = Induction of apoptosis in mouse BaF3 cells harboring EGFR 19del/T790M/C797S mutant assessed as early apoptotic cells at 100 nM incubated for 48 hrs by Annexin V-FITC/PI staining based flow cytometric analysis (reference value: 2.48 %); format: functional
[20] = Induction of apoptosis in mouse BaF3 cells harboring EGFR 19del/T790M/C797S mutant assessed as early apoptotic cells at 1000 nM incubated for 48 hrs by Annexin V-FITC/PI staining based flow cytometric analysis (reference value: 2.48 %); format: functional

pIC50 (BaF3 [1]): 7.00
pIC50 (A-431): 6.52
pIC50 (BaF3 [8]): 6.75
pIC50 (cells): 7.03
Compound: COc1cc(N2CCC(N3CCN(C)CC3)CC2)c(C)cc1Nc1ncc(Br)c(Nc2ccc3nccnc3c2P(C)(C)=O)n1
inhibition in vivo at 20 mg/kg (BaF3 [2]): 78.4%
Activity [3]: 22.63%
Activity [4]: 1.98%
Activity [5]: 2.39%
Activity [6]: 64.67%
IC50 at 72 h [7]: 2040 nM
Activity [9]: 18.4%
Activity [10]: 3.84%
Activity [11]: 6.67%
Activity [12]: 50.63%

pIC50 (BaF3 [1]): 6.42
pIC50 (A-431): 6.36
pIC50 (BaF3 [8]): 6.41
pIC50 (cells): 6.50
Compound: COc1cc(N2CCC(N3CCN(C)CC3)CC2)ccc1Nc1ncc(Cl)c(Nc2ccccc2P(C)(C)=O)n1 [BRIGATINIB]
Activity [13]: 1.86%
Activity [14]: 6.87%
Activity [15]: 1.21%
Activity [16]: 2.4%
Activity [17]: 4.25%
Activity [18]: 1.3%
IC50 at 72 h [7]: 2380 nM
Activity [19]: 3.51%
Activity [20]: 32.44%
